Assay results published in EP0306698A1, “Condensed diazepinones, processes for their preparation, and medicaments containing these compounds” (Dr. Karl Thomae GmbH, priority 1987, dated 1989).
Where a name gives a salt, the structure may show the parent alone. Read-outs that look alike come from different tables or passages of the source.

Columns and labels:
[1] = system: Acetylcholinwirkung auf Herzfrequenz; assay: Inhibition of the acetylcholine effect on heart rate; assay type: in vivo, Meerschweinchen; conditions: for ED50: Cavia porcellus, 5 min, anaesthetised guinea pig, acetylcholine 5 min after test substance, heart rate
Text: (§1) Dabei wurde die Herzfrequenz durch extrakorporale Ableitung des EKG, der Ausatemwiderstand nach Konzett-Rößler und die Kontraktion […] an den untersuchten Organen wurden Dosis-Wirkungskurven aufgenommen und daraus -log EDso-Werte bestimmt. Ergebnisse siehe Tabelle V.

[2] = system: Acetylcholinwirkung auf Blase; assay: Inhibition of the acetylcholine effect on bladder; assay type: in vivo, Meerschweinchen; conditions: for ED50: Cavia porcellus, 5 min, anaesthetised guinea pig, acetylcholine 5 min after test substance, bladder contraction, read-out: -log ED50 Blase (converted)
Text: as §1

M2 = M2 activity in the rat: inhibition of bradycardia induced by vagus stimulation; assay type: in vivo, Ratte; conditions: i.v.; dose reducing vagal bradycardia by 50%; 5 min after injection
Procedure: (§2) Die angewandte Methode wurde von Hammer und Giachetti (Life Sciences 31, 2991-2998 (1982)) beschrieben. 5 Minuten nach intravenöser Injektion steigender Dosen der Substanz wurden entweder der rechte Vagus elektrisch stimuliert (Frequenz: 25 Hz; Pulsbreite: 2ms; Reizdauer: 30s; Voltzahl: supramaximal) oder 0,3 mg/kg McN-A-343 in männliche THOM-Ratten intravenös injiziert. Die durch Vagusstimulation hervorgerufene Bradykardie und der durch McN-A-343 verursachte Blutdruckanstieg wurden bestimmt. Die Dosis der Substanzen, die entweder die vagale Bradykardie (M2) oder den Blutdruckanstieg (Mi) um 50% verminderte, wurde graphisch ermittelt. Ergebnisse siehe Tabelle II.

[3] = molecular target: T1, muskarinischen Rezeptoren (Ventrikel) (Rattus norvegicus, UniProt P10980); assay: Receptor binding test in vivo (3H-NMS), heart ventricle; design: species or system Ratten; conditions: iv
T1 construct: wurden die Tiere getötet, das Herz, die Bronchien und die Tränendrüsen entnommen; from tissue; host or cells: rat heart (atrium, ventricle), in vivo labelling with 3H-NMS
T1 sequence (P10980 1-466): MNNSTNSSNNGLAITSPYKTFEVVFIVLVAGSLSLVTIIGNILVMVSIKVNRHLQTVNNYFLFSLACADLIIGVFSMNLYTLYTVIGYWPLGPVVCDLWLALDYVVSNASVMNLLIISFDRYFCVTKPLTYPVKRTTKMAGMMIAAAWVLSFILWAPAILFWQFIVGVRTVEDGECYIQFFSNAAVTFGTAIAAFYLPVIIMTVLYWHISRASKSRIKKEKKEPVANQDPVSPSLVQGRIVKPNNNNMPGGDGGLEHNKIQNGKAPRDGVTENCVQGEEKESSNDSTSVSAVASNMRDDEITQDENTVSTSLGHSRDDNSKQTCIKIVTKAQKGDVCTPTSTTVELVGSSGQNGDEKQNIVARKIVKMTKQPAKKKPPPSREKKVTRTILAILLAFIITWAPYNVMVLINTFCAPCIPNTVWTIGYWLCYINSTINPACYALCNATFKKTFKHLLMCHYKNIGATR
Procedure: (§3) Für diese Experimente wurden weibliche Ratten mit einem Körpergewicht von ca. 200 g verwendet. Vor Versuchsbeginn wurden die Tiere mit einer Dosis von 1,25 g/kg Urethan narkotisiert. Die Tiere erhielten jeweils die vorgesehene Dosis der Prüfsubstanz durch i.v. Injektion. Nach Ablauf von 15 Minuten wurde auf gleiche Weise 113 ng/kg ^3H-N-Methylscopolamin (^3H-NMS) gegeben. Nach weiteren 15 Minuten wurden die Tiere getötet, das Herz, die Bronchien und die Tränendrüsen entnommen. Diese Organe wurden in Soluene R aufgelöst und die Radioaktivität bestimmt. Diese Messwerte wurden als Totalbindung angenommen. […] Aus diesen Versuchen wurden für die einzelnen Organe IDso-Werte ermittelt. Die IDso-Werte sind Dosen der Prüfsubstanzen, die 50% der spezifischen Bindung von ^3H-NMS an die muskarinischen Rezeptoren der jeweiligen Organe hemmten.

[4] = molecular target: T2, muscarinischen Rezeptoren (Herz) (Rattus norvegicus, UniProt P10980); assay: biochemical; assay type: binding, Ratte; conditions: whole heart homogenate 1:400, 0,3 nmolar 3H-NMS, 30°C, 45 min; read-out: Rezeptor-Bindungs-Tests -log IC50 Herz (converted)
T2 construct: Das Gesamtherz wurde mit einer Schere zerkleinert; Alle Organe wurden abschließend in einem Potter homogenisiert; from tissue; host or cells: rat whole heart homogenate
T2 sequence (P10980 1-466): T1 sequence (P10980 1-466)
Text: Als Organspender dienten männliche Sprague-Dawley-Ratten mit 180-220 g Körpergewicht. Nach Entnahme von Herz und Submandibularis wurden alle weiteren Schritte in eiskaltem Hepes-HCI-Puffer (pH 7,4; 100 m molar NaCI, 10 m molar MgCI2) vorgenommen. Das Gesamtherz wurde mit einer Schere zerkleinert. Alle Organe wurden abschließend in einem Potter homogenisiert.
Für den Bindungstest wurden die Organhomogenate in folgender Weise verdünnt: • Gesamtherz 1:400 • Submandibularis 1:400
Die Inkubation der Organhomogenate erfolgte bei einer bestimmten Konzentration des Radioliganden und einer Konzentrationsreihe der nichtradioaktiven Testsubstanzen im Eppendorf-Zentrifugenröhrchen bei 30°C. Die Inkubationsdauer betrug 45 Minuten. Als Radioligand wurde 0,3 nmolar ^3H-N-Methylscopolamin (^3H-NMS) verwendet. Die Inkubation wurde durch Zugabe von eiskaltem Puffer mit nachfolgender Vakuumfiltration beendet. Die Filter wurden mit kaltem Puffer gespült und ihre Radioaktivität bestimmt. Sie repräsentiert die Summe von spezifischer und unspezifischer Bindung von ^3H-NMS. Der Anteil der unspezifischen Bindung wurde definiert als jene Radioaktivität die in Anwesenheit von 1 u. molar Quinciidinylbenzilat gebunden wurde. Es wurden immer Vierfachbestimmungen vorgenommen. Die ICso-Werte der nicht markierten Testsubstanzen wurden graphisch bestimmt. Sie repräsentieren jene Konzentration der Testsubstanz, bei welcher die spezifische Bindung von ^3H-NMS an die muscarinischen Rezeptoren in den verschiedenen Organen um 50 % gehemmt wurde.

[5] = molecular target: T3, muskarinischen Rezeptoren (Tränendrüsen) (Rattus norvegicus, UniProt P08483); assay: in vivo; conditions: iv, 0.5 h, read-out: ID50 Tränendrüsen
M1 = M1 activity in the rat: inhibition of blood pressure rise caused by McN-A-343; assay type: in vivo, Ratte
Procedure: as §2

[6] = system: Acetylcholinwirkung auf Bronchien; assay: Inhibition of the acetylcholine effect on bronchi; assay type: in vivo, Meerschweinchen; conditions: for ED50: Cavia porcellus, 5 min, anaesthetised guinea pig, acetylcholine 5 min after test substance, expiratory resistance, read-out: -log ED50 Bronchien (converted)
Text: as §1

[7] = molecular target: T4, muskarinischen Rezeptoren (Atrium) (Rattus norvegicus, UniProt P10980); assay: Receptor binding test in vivo (3H-NMS), heart atrium; design: species or system Ratten
T4 construct: wurden die Tiere getötet, das Herz, die Bronchien und die Tränendrüsen entnommen; from tissue; host or cells: rat heart (atrium, ventricle), in vivo labelling with 3H-NMS
T4 sequence (P10980 1-466): T1 sequence (P10980 1-466)
Text: as §3, with “Nach Ablauf von 15 Minuten wurde auf gleiche Weise 113 ng/kg ^3H-N-Methylscopolamin (^3H-NMS) gegeben.” left out

Speichelsekretion = assay: Inhibition of pilocarpine-induced salivation in the rat; assay type: in vivo, Ratte; conditions: for ED50: Rattus norvegicus, iv, dose reducing saliva volume by 50%, pilocarpine 2 mg/kg s.c., read-out: Speichelsekretionshemmung (Ratte) ED50
Procedure: Nach Lavy und Mulder (Arch. int. Pharmacodyn. 178, 437-445, (1969)) erhielten mit 1,2 g/kg Urethan narkotisierte männliche THOM-Ratten steigende Dosen der Substanz i.v.. Die Speichelsekretion wurde durch s.c. Gabe von 2 mg/kg Pilocarpin ausgelöst. Der Speichel wurde mit Fließpapier aufgesaugt, die von ihm eingenommene Fläche alle 5 Minuten planimetrisch bestimmt. Die Dosis der Substanz, die das Speichelvolumen um 50% verminderte, wurde graphisch ermittelt. Ergebnisse siehe Tabelle 11.

Solubility in water = assay type: physicochemical; conditions: for Löslichkeit in Wasser: result in words; for solubility: water, read-out: Löslichkeit in Wasser
[8] = molecular target: T3, muskarinischen Rezeptoren (Tränendrüsen); conditions: in vivo, iv
[9] = i.v., dose reducing McN-A-343 (0,3 mg/kg) blood pressure rise by 50%, 5 min
[10] = ratio of ED50 salivation inhibition to ED50 M2 activity, rat

T3 sequence (P08483 whole entry): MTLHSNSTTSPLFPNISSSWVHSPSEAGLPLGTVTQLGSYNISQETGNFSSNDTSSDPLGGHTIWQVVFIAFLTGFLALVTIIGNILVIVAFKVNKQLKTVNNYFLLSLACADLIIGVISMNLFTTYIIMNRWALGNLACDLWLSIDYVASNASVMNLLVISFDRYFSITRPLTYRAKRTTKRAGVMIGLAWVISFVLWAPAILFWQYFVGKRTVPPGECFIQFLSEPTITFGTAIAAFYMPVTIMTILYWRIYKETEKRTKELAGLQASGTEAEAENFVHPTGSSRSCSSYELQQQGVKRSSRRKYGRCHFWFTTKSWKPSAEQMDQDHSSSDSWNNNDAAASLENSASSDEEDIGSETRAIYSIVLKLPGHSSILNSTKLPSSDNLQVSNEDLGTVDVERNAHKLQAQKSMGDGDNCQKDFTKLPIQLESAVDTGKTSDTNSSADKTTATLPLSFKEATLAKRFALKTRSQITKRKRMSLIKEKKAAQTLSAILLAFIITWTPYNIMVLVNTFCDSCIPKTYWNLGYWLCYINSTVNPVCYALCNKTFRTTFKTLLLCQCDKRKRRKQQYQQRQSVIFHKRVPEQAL

Structure (SMILES)	ED50 [1] [µmol/kg]	ED50 [2] [µmol/kg]	M2-Aktivität (Ratte) ED50 (M2)	IC50 [4] [nM]	M1-Aktivität (Ratte) ED50 (M1; [9])	ED50 [6] [µmol/kg]	ED50 (Speichelsekretion) [mg/kg]	further results
CCN(CC)CC1CCCCN1CC(=O)N1c2ccccc2C(=O)Nc2cccnc21 (stereo not drawn) [X, 11-[[2-[(Diethylamino)methyl]-1-piperidinyl]acetyl]-5,11-dihydro-6H-pyrido[2,3-b][1,4]-benzodiazepin-6-on, reference compound]	1.45	18.6	160 µg/kg	151	988 µg/kg	2.63		ED50 ([3]; rat, 0.5 h, read-out: ID50 Herz Ventrikel): 0.6 mg/kg; ED50 [5]: > 30 mg/kg; ED50 ([7]; rat, iv, 0.5 h, read-out: ID50 Herz Atrium): 1 mg/kg
CS(=O)(=O)O.O=C1Nc2cccnc2N(C(=O)N2CCCC(CCN3CCCCC3)C2)c2ccccc21 (stereo not drawn) [C, 5,11-Dihydro-11-[[3-[2-(1-piperidinyl)ethyl]-1-piperidinyl]carbonyl]-6H-pyrido[2,3-b][1,4]-benzodiazepin-6-on-methansulfonat]	0.0427	0.355	7,6 µg/kg	3.02	39 µg/kg	0.0417	0.058	Verhältnis Speichelsekretionshemmung zu M2-Aktivität (Speichelsekretion; [10]): 7,6
CN1CCN(CC(=O)N2c3ccccc3C(=O)Nc3cccnc32)CC1 [Y, 5,11-Dihydro-11-[(4-methyl-1-piperazinyl)acetyl]-6H-pyrido[2.3-b][1,4]benzodiazepin-6-on, reference compound]	1.41	4.37				0.269	0.084	
O=C1Nc2ccccc2N(C(=O)N2CCCC(CCN3CCCCC3)C2)c2ncccc21 (stereo not drawn) [G, 6,11-Dihydro-11-[[3-[2-(1-piperidinyl)ethyl]-1-piperidinyl]carbonyl]-5H-pyrido[23-b][1,5]-benzodiazepin-5-on]	0.0148	0.302	8,13 µg/kg	3.98	7,16 µg/kg	0.0263	0.00683	Verhältnis Speichelsekretionshemmung zu M2-Aktivität (Speichelsekretion; [10]): 20,00
CCN(CC)CCCCC1CCCCN1C(=O)N1c2ccccc2C(=O)Nc2cccnc21 (stereo not drawn) [Beispiel 4, 11-[[2-[4-(Diethyiamino)butyl]-1-piperidinyl]carbonyl]-5,11-dihydro-6H-pyrido[2,3-b][1,4]benzodiazepin-6-on]								Löslichkeit in Wasser (Solubility in water; dihydrochloride): wasserlösliche
O=C1Nc2cccnc2N(C(=O)N2CCCC(CCCN3CCCCC3)C2)c2ccccc21 (stereo not drawn) [A, 5,11-Dihydro-11-[[3-[3-(1-piperidinyl)propyl]-1-piperidinyl]carbonyl]-6H-pyrido[2,3-b][1,4]-benzodiazepin-6-on]	0.0871	1.35	6,9 µg/kg	2	49 µg/kg	0.117	0.035	ED50 [5]: 0.2 mg/kg; Verhältnis Speichelsekretionshemmung zu M2-Aktivität (Speichelsekretion; [10]): 5; Löslichkeit in Wasser (Solubility in water; methanesulfonate salt): leicht löslich; solubility (Solubility in water; hydrochloride salt): ~2000 µg/mL; solubility (Solubility in water; salt with N-Cyclohexylsulfamidsäure): ~10000 µg/mL; ED50 ([7]; rat, iv, 0.5 h; read-out: ID50 Herz Atrium): 0.01 mg/kg
Cl.O=C1Nc2cccnc2N(C(=O)N2CCCC(CCCN3CCCC3)C2)c2ccccc21 (stereo not drawn) [B, 5,11-Dihydro-11-[[3-[3-(1-pyrrolidinyl)propyl]-1-piperidinyl]carbonyl]-6H-pyrido[2,3-b][1,4]-benzodiazepin-6-on-hydrochlorid]	0.0661	0.692		10		0.0871		solubility (Solubility in water; hydrochloride salt): ~3000 µg/mL
CN1C2CCC1CC(OC(=O)C(CO)c1ccccc1)C2 (racemic) [Z, Atropin, reference compound]								-log ED50 Herz ([1]; in vivo): 7,70 Molkg^-1; -log ED50 Blase ([2]; in vivo): 7,03 Molkg^-1; ID50 Herz Ventrikel ([3]; in vivo): 0,03 mg/kg; M1-Aktivität (Ratte) ED50 (M1; in vivo): 16 µg/kg; ID50 Tränendrüsen [8]: 0,2 mg/kg; Verhältnis Speichelsekretionshemmung zu M2-Aktivität (Speichelsekretion; in vivo): 2,2; -log ED50 Bronchien ([6]; in vivo): 7,96 Molkg^-1; Verhältnis der ID50 Tränendrüse zu ID50 des Atrium ([7]; in vivo): 1,5; ID50 Herz Atrium ([7]; in vivo, iv): 0,08 mg/kg
O=C1Nc2cccnc2N(C(=O)N2CCCC(CCN3CCCC3)C2)c2ccccc21 (stereo not drawn) [D, 5,11-Dihydro-11-[[3-(2-(1-pyrrolidinyl)ethyl]-1-piperidinyl]carbonyl]-6H-pyrido[2,3-b][1,4]-benzodiazepin-6-on-hydrochlorid]	0.0479	0.708		6.03		0.0324		
O=C1Nc2cccnc2N(C(=O)N2CCCC(CCN3CCCCCC3)C2)c2ccccc21 (stereo not drawn) [F, 5,11-Dihydro-11-[[3-[2-(hexahydro-1H-1-azepinyl)ethyl]-1-piperidinyl]carbonyl]-6H-pyrido[23-b]-[1,4]benzodiazepin-6-on-hydrochlorid]	0.0162	0.38		3.02		0.0398		
CN(CCC1CCCN(C(=O)N2c3ccccc3C(=O)Nc3cccnc32)C1)C1CCCC1 (stereo not drawn) [E, 11-[[3-[2-[(Cyclopentyl)methylamino]ethyl]-1-piperidinyl]carbonyl]-5,11-dihydro-6H-pyrido[2,3-b]-[1,4]-benzodiazepin-6-on-hydrochlorid]	0.0813	0.891		3.02		0.0977		
